{"source": "patent US10294259B2", "about": "“Phenyl c-glucoside derivative containing deoxyglucose structure, preparation method and use thereof” (Tianjin Institute of Pharmaceutical Research, priority 2012, dated 2019)", "key": {"hSGLT2": {"target": "hSGLT2 (Homo sapiens (Human), UniProt P31639)", "sequence (P31639 whole entry)": "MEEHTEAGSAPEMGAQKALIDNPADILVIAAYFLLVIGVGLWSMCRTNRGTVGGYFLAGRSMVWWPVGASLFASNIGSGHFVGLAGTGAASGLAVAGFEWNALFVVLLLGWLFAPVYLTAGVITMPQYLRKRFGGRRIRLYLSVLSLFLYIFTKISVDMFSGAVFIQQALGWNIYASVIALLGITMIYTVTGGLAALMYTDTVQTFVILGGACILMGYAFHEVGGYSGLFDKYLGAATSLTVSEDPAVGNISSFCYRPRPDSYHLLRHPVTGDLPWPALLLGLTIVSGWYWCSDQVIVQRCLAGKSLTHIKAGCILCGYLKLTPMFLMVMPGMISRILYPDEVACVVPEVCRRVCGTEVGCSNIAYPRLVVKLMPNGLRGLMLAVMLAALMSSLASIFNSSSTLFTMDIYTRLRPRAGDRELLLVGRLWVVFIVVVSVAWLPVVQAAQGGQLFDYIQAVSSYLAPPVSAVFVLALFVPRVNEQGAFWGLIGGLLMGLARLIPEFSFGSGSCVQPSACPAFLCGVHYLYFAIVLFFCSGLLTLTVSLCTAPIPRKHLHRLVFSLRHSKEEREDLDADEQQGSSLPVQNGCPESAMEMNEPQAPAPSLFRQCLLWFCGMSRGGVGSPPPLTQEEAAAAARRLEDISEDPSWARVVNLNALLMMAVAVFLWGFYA", "assay": "IC50 of inhibition on SGLT2 (method of Meng et al., J. Med. Chem. 2008)", "assay_type": "cell-based"}, "[1]": {"tested_on": "SD rats (type 2 diabetes model)", "assay": "Urine glucose excretion in streptozotocin/high-fat high-sucrose diet type 2 diabetes model rats, glucose-oxidase method", "assay_type": "in vivo, rat", "conditions": "for Urine glucose excretion: 6 mg/kg intragastric, glucose 2 g/kg at 0.5 h, urine collected 0-12 h", "procedure": "The health SD rats are injected intraperitoneally with multiple low doses of streptozotocin for modeling (type 2 diabetes model) after feeding with high-fat and high-sucrose diet, and the content of blood glucose is measured before and after modeling. After the modeling successful, the rats for modeling are randomly divided (8 rats/group) into one blank group (administering the same volume of 0.5% CMC sodium solution) and several groups for compounds to be tested (6 mg/kg) according to the content of 24-hour urine glucose and the body weight. Rats in each group are fasted for 16 hours before experiment. The experimental rats are administered intragastrically with glucose (2 g/kg) at 0.5 h after intragastrical administration with compounds to be tested. The urine is collected at the time-period of 0-12 h after administration, and the urine glucose values are measured at each time-period by glucose-oxidase method. […]"}, "[2]": {"assay": "Influencing factors test: higher temperature stability", "assay_type": "physicochemical", "conditions": "listed as I-D1-6 raw materials", "from_the_text": "(§1) The appearance, number of impurity and the amount of impurity (measured by HPLC) are compared with that of day 0."}, "[3]": {"assay": "Influencing factors test: light stability", "assay_type": "physicochemical", "conditions": "listed as I-D1-6 raw materials", "from_the_text": "as §1"}, "[4]": {"assay": "Influencing factors test: higher humidity stability", "assay_type": "physicochemical", "conditions": "listed as I-D1-6 raw materials", "from_the_text": "as §1"}, "hSGLT1": {"target": "hSGLT1 (Homo sapiens (Human), UniProt P13866)", "sequence (P13866 whole entry)": "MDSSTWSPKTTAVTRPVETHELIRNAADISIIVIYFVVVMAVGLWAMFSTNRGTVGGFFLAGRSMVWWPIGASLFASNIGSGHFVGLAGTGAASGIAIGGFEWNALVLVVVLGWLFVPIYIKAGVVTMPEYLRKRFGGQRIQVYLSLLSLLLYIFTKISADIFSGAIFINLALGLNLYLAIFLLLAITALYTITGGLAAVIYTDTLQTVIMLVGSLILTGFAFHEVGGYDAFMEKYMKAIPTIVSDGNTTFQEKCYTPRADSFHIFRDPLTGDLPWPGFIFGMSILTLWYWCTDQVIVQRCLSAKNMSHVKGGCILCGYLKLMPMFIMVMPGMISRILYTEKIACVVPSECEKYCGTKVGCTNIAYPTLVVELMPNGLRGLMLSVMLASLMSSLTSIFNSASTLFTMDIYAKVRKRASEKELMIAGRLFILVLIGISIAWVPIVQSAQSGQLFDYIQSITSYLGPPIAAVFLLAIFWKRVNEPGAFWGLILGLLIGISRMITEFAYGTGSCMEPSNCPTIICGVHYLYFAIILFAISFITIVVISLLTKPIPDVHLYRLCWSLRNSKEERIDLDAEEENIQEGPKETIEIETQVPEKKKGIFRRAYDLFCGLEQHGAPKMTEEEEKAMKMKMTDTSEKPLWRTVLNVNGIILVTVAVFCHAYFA", "assay": "IC50 of inhibition on SGLT1 (method of Meng et al., J. Med. Chem. 2008)", "assay_type": "cell-based", "conditions": "compared with methoxyl and methyl analogues of Table 3"}, "[5]": {"conditions": "compared with methoxyl and methyl analogues of Table 3"}}, "data": [{"smiles": "CCOc1ccc(Cc2cc(C3OC(C)C(O)C(O)C3O)ccc2C)cc1", "note": "(centres unmarked) [drawing 313]", "values": [{"measurement": "Selectivity IC50 (hSGLT1)/IC50 (hSGLT2)", "setting": "hSGLT2", "value": 24}]}, {"smiles": "COc1ccc(Cc2cc(C3OC(C)C(O)C(O)C3O)ccc2Cl)cc1", "note": "(centres unmarked) [drawing 311]", "values": [{"measurement": "Selectivity IC50 (hSGLT1)/IC50 (hSGLT2)", "setting": "hSGLT2", "value": 26}]}, {"smiles": "COc1ccc(Cc2cc(C3OC(CO)CC(O)C3O)ccc2Cl)cc1", "note": "(centres unmarked)", "values": [{"measurement": "Urine glucose excretion", "setting": "[1]", "value": "310 mg/200 g body weight of the rat"}]}, {"smiles": "C=C1OC(c2ccc(Cl)c(Cc3ccc(OC)cc3)c2)C(O)C(O)C1O", "note": "(centres unmarked)", "values": [{"measurement": "Urine glucose excretion", "setting": "[1]", "value": "410 mg/200 g body weight of the rat"}]}, {"smiles": "CCOc1ccc(Cc2cc(C3OC(C)C(O)C(O)C3O)ccc2Cl)cc1", "note": "[I-D1-6, (1S)-1-[4-chloro-3-(4-ethoxybenzyl)phenyl]-1,6-dideoxy-D-glucose]", "values": [{"measurement": "Number of impurity", "setting": "[2]; 45° C., day 0, HPLC", "value": 7}, {"measurement": "Total amount of impurity (%)", "setting": "[2]; 45° C., day 0, HPLC", "value": 0.89, "unit": "%"}, {"measurement": "Number of impurity", "setting": "[2]; 45° C., day 7, HPLC", "value": 8}, {"measurement": "Total amount of impurity (%)", "setting": "[2]; 45° C., day 7, HPLC", "value": 0.97, "unit": "%"}, {"measurement": "Appearance", "setting": "[2]; 45° C., day 7", "value": "white, foam-like"}, {"measurement": "Number of impurity", "setting": "[2]; 45° C., day 14, HPLC", "value": 9}, {"measurement": "Appearance", "setting": "[2]; 45° C., day 14", "value": "white, foam-like"}, {"measurement": "Appearance", "setting": "[2]; higher temperature (45° C.), day 0", "value": "white, foam-like"}, {"measurement": "Appearance", "setting": "[3]; light (natural daylight, about 80000 Lx), day 0", "value": "a white, foam-like"}, {"measurement": "Appearance", "setting": "[3]; light, day 7", "value": "a white, foam-like"}, {"measurement": "Appearance", "setting": "[3]; light, day 14", "value": "a white, foam-like"}, {"measurement": "inhibition to SGLT2 (comparison in words)", "setting": "hSGLT2; [5]", "value": "much stronger inhibition to SGLT2"}, {"measurement": "selectivity on SGLT1/SGLT2 (comparison in words)", "setting": "hSGLT2; [5]", "value": "much better selectivity on SGLT1/SGLT2"}, {"measurement": "Appearance", "setting": "[4]; higher humidity (30% relative humidity at 30° C.), day 0", "value": "white, foam-like"}, {"measurement": "Appearance", "setting": "[4]; higher humidity, day 7", "value": "white foam-like"}, {"measurement": "Appearance", "setting": "[4]; higher humidity, day 14", "value": "white foam-like"}, {"measurement": "inhibition to SGLT1 (comparison in words)", "setting": "hSGLT1", "value": "much less inhibition to SGLT1"}, {"measurement": "urine glucose excretion effect (comparison in words)", "setting": "[1]; compared with analogues or non-deoxy compounds", "value": "stronger urine glucose excretion effect"}]}, {"smiles": "CCOc1ccc(Cc2cc(C3OC(C)(C)C(O)C(O)C3O)ccc2Cl)cc1", "note": "(centres unmarked)", "values": [{"measurement": "Urine glucose excretion", "setting": "[1]", "value": "470 mg/200 g body weight of the rat"}]}]}
